Results from PubChem BioAssay (NCI).
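Each compound was tested at five concentrations against cells in 96-well plates for 48 hours. At the GI50, growth is halved. TGI: total growth inhibition.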

How the values were obtained:
Assay in all cases: DTP human tumour cell line panel, 48 h
[1] = system: SNB-75 CNS
[2] = system: NCI/ADR-RES ovarian
[3] = system: DU-145 prostate
[4] = system: U251 CNS
[5] = system: LOX IMVI melanoma
[6] = system: A549 NSCLC
[7] = system: HS 578T breast
[8] = system: SK-OV-3 ovarian
[9] = system: IGROV1 ovarian
[10] = system: SN12C renal

COc1cc(/C=C/[N+](=O)[O-])cc(Br)c1OC
GI50 [1]: 1.85 µM
TGI [1]: 5 µM
GI50 [2]: 3.62 µM
TGI [2]: 19.5 µM
GI50 [3]: 1.8 µM
TGI [3]: 3.56 µM
GI50 [4]: 1.77 µM
TGI [4]: 3.75 µM
GI50 [5]: 0.899 µM
TGI [5]: 2.18 µM
GI50 [6]: 7.84 µM
TGI [6]: 22 µM
GI50 [7]: 2.9 µM
TGI [7]: 15.9 µM
GI50 [8]: 13.4 µM
TGI [8]: 26.5 µM
GI50 [9]: 1.84 µM
TGI [9]: 4.54 µM
GI50 [10]: 3.94 µM
TGI [10]: 13.1 µM

CCCCCn1sc(=O)n(Cc2ccc(CNC(=O)OCc3ccc4cccc(O)c4n3)cc2)c1=O
GI50 [1]: 1.14 µM
TGI [1]: 4.52 µM
GI50 [2]: 1.54 µM
TGI [2]: 4.41 µM
GI50 [3]: 1.6 µM
TGI [3]: 3.09 µM
GI50 [4]: 1.77 µM
TGI [4]: 3.45 µM
GI50 [5]: 1.09 µM
TGI [5]: 2.33 µM
GI50 [6]: 2.12 µM
TGI [6]: 5.57 µM
GI50 [7]: 2.17 µM
TGI [7]: 6.73 µM
GI50 [8]: 4.58 µM
TGI [8]: 18.4 µM
GI50 [9]: 1.17 µM
TGI [9]: 2.65 µM
GI50 [10]: 1.49 µM
TGI [10]: 2.82 µM

C[C@@H]1O[C@@H](O[C@H]2CC[C@@]3(C)[C@H](CCC4[C@@H]3C(O)C[C@]3(C)[C@@H](c5ccc(=O)oc5)CC[C@]43O)C2)[C@H](O)[C@H](O)[C@H]1O (stereo partly drawn)
GI50 [1]: 0.0047 µM
TGI [1]: 0.0107 µM
GI50 [2]: < 0.00325 µM
TGI [2]: 0.00578 µM
GI50 [3]: 0.00355 µM
TGI [3]: 0.00516 µM
GI50 [4]: 0.0052 µM
TGI [4]: 0.00974 µM
GI50 [5]: 0.00519 µM
TGI [5]: 0.0101 µM
GI50 [6]: < 0.00325 µM
TGI [6]: 0.00441 µM
GI50 [7]: < 0.00325 µM
TGI [7]: 0.0659 µM
GI50 [8]: 0.00502 µM
TGI [8]: 0.00987 µM
GI50 [9]: 0.0065 µM
TGI [9]: 0.0237 µM
GI50 [10]: < 0.00325 µM
TGI [10]: 0.758 µM

COc1ccc(-c2cc(=O)c3c(OC)c(OC)c(OC)c(OC)c3o2)cc1
TGI [1]: > 100 µM
TGI [2]: > 100 µM
TGI [3]: > 100 µM
TGI [4]: > 100 µM
TGI [5]: > 100 µM
TGI [6]: > 100 µM
TGI [7]: > 100 µM
TGI [8]: > 100 µM
TGI [9]: > 100 µM
TGI [10]: > 100 µM

COc1ccc(/C=N/NC(=O)Cn2c(-c3ccc(S(C)(=O)=O)cc3)nc3cc(Cl)ccc32)cc1
GI50 [1]: 1.05 µM
TGI [1]: > 50 µM
GI50 [2]: 0.956 µM
TGI [2]: > 50 µM
GI50 [3]: 1.95 µM
TGI [3]: > 50 µM
GI50 [4]: 1.16 µM
TGI [4]: > 50 µM
GI50 [5]: 1.4 µM
TGI [5]: > 50 µM
GI50 [6]: 1.97 µM
TGI [6]: > 50 µM
GI50 [7]: 1.77 µM
TGI [7]: > 50 µM
GI50 [8]: 1.72 µM
TGI [8]: > 50 µM
GI50 [9]: 3.63 µM
TGI [9]: > 50 µM
GI50 [10]: 2.59 µM
TGI [10]: > 50 µM

COC(=O)c1nc(-c2ccccc2)oc1S(=O)(=O)n1nc(C)cc1N
GI50 [1]: 13.2 µM
TGI [1]: 26.6 µM
GI50 [2]: 22.5 µM
TGI [2]: 57.6 µM
GI50 [3]: 15.9 µM
TGI [3]: 29.3 µM
GI50 [4]: 16.5 µM
TGI [4]: 30.8 µM
GI50 [5]: 1.51 µM
TGI [5]: 3.34 µM
GI50 [6]: 28.9 µM
TGI [6]: 84 µM
GI50 [7]: 25.8 µM
TGI [7]: 90.2 µM
GI50 [8]: 45.5 µM
TGI [8]: > 100 µM
GI50 [9]: 15.7 µM
TGI [9]: 36.5 µM
GI50 [10]: 5.64 µM
TGI [10]: 19.7 µM

O=C(Nc1cccc(Nc2ncc(Br)c(NCCc3cnc[nH]3)n2)c1)N1CCCC1
GI50 [1]: 1.28 µM
TGI [1]: 4.96 µM
GI50 [2]: > 66.7 µM
TGI [2]: > 100 µM
GI50 [3]: 7.08 µM
TGI [3]: 36.5 µM
GI50 [4]: 5.22 µM
TGI [4]: 45.8 µM
GI50 [5]: 1.11 µM
TGI [5]: 7.4 µM
GI50 [6]: 7.56 µM
TGI [6]: > 67.1 µM
GI50 [7]: 0.747 µM
TGI [7]: 4.1 µM
GI50 [8]: 4.95 µM
TGI [8]: 32.4 µM
GI50 [9]: 3.23 µM
TGI [9]: 28.8 µM
GI50 [10]: 2.88 µM
TGI [10]: 33.6 µM

Cc1ccc(NC(=O)c2ccccc2C(=O)O)cc1C
TGI [1]: > 100 µM
TGI [2]: > 100 µM
TGI [3]: > 100 µM
TGI [4]: > 100 µM
TGI [5]: > 100 µM
TGI [6]: > 100 µM
TGI [7]: > 100 µM
TGI [8]: > 100 µM
TGI [9]: > 100 µM
TGI [10]: > 100 µM

CCN1C(=O)N(CC)C2C1NN=c1s/c(=C3\C(=O)N(CCc4ccccc4)c4ccccc43)c(=O)n12 (stereo not drawn)
GI50 [1]: 0.289 µM
TGI [1]: 2.09 µM
GI50 [2]: 0.378 µM
TGI [2]: 6.48 µM
GI50 [3]: 0.558 µM
TGI [3]: 6.95 µM
GI50 [4]: 0.413 µM
TGI [4]: 15.6 µM
GI50 [5]: 0.527 µM
TGI [5]: 4.94 µM
GI50 [6]: 0.638 µM
TGI [6]: > 39.5 µM
GI50 [7]: 0.449 µM
TGI [7]: 6.37 µM
GI50 [8]: 0.542 µM
TGI [8]: 5.77 µM
GI50 [9]: 0.672 µM
GI50 [10]: 1.34 µM

CCN(Cc1ccc(Cl)s1)c1ccc(CO)c(Cl)c1
GI50 [1]: 2.18 µM
TGI [1]: 21.6 µM
GI50 [2]: 10.4 µM
TGI [2]: 47.1 µM
GI50 [3]: 12 µM
TGI [3]: > 60.4 µM
GI50 [4]: 0.434 µM
TGI [4]: 13.2 µM
GI50 [5]: 5.24 µM
TGI [5]: 18.8 µM
GI50 [6]: 1.08 µM
TGI [6]: 18.7 µM
GI50 [7]: 11.7 µM
TGI [7]: > 60.4 µM
GI50 [8]: 2.74 µM
TGI [8]: 18.2 µM
GI50 [9]: 0.0722 µM
TGI [9]: 0.337 µM
GI50 [10]: 7.08 µM
TGI [10]: 22.3 µM

Cc1c(C2=C(c3cn(C)c4ccccc34)C(=O)NC2=O)c2ccccc2n1C
GI50 [1]: 0.732 µM
TGI [1]: 7.38 µM
GI50 [2]: 3.65 µM
TGI [2]: > 25 µM
GI50 [3]: 9.62 µM
TGI [3]: > 25 µM
GI50 [4]: 2.01 µM
TGI [4]: > 25 µM
GI50 [5]: 5.3 µM
TGI [5]: > 25 µM
GI50 [6]: 1.74 µM
TGI [6]: > 25 µM
GI50 [7]: 0.943 µM
TGI [7]: > 25 µM
GI50 [8]: 1.78 µM
TGI [8]: > 25 µM
GI50 [9]: > 10.2 µM
TGI [9]: > 25 µM
GI50 [10]: 15.5 µM
TGI [10]: > 25 µM

COc1cc2c(c(OC)c1OC)-c1ccc(SC)c(=O)cc1[C@@H](NC1OC(CO)C(O)C(O)C1O)CC2 (stereo partly drawn)
GI50 [1]: 0.0439 µM
TGI [1]: > 100 µM
GI50 [2]: 0.0556 µM
TGI [2]: > 100 µM
GI50 [3]: 0.0352 µM
TGI [3]: > 100 µM
GI50 [4]: 0.0318 µM
TGI [4]: 24.4 µM
GI50 [5]: 0.037 µM
TGI [5]: > 100 µM
GI50 [6]: 0.0385 µM
TGI [6]: > 100 µM
GI50 [7]: 0.0425 µM
TGI [7]: 61 µM
GI50 [8]: 0.0396 µM
TGI [8]: > 100 µM
GI50 [9]: 0.0635 µM
TGI [9]: > 100 µM
GI50 [10]: 0.0557 µM
TGI [10]: > 100 µM

N#CN1CC[C@H](C(=O)Nc2ncc(-c3ccncc3)s2)C1
GI50 [1]: < 0.0148 µM
TGI [1]: 0.53 µM
GI50 [2]: < 0.0242 µM
TGI [2]: > 100 µM
GI50 [3]: < 0.0238 µM
TGI [3]: 39.7 µM
GI50 [4]: 0.0853 µM
TGI [4]: 53.5 µM
GI50 [5]: < 0.019 µM
TGI [5]: > 100 µM
GI50 [6]: 0.262 µM
TGI [6]: > 100 µM
GI50 [7]: 0.0948 µM
TGI [7]: 4.66 µM
GI50 [8]: 1.15 µM
TGI [8]: > 30.9 µM
GI50 [9]: 0.0351 µM
TGI [9]: 68.4 µM
GI50 [10]: < 0.0277 µM
TGI [10]: 38.4 µM
